Reference: patent US20090022739A1, “MODULATING THE KV1.1 VOLTAGE-GATED POTASSIUM CHANNEL IN T-CELLS FOR REGULATING THE […] AND SECRETION OF TUMOR NECROSIS FACTOR ALPHA (tnf-ALPHA) AND TREATING HUMAN DISEASE OR INJURIES MEDIATED BY […] HIGH OR LOW LEVELS OF TNF-ALPHA” (priority 2005, published 2009)

How the values were obtained:
NF-κB p50 = assay: Immunofluorescent histochemistry for NF-κB p50 nuclear translocation; assay type: cell-based, human; conditions: 100 nM DTX-K; 7 minutes; FIG. 3C
Experimental: Immunofluorescent Histochemistry for NF-κB: Freshly-isolated normal human T-cells that were pretreated or not with DTX-K (100 nM for 7, 15, 30 and 60 minutes), were pelleted (1200 g, 10 minutes, […]), suspended in PBS at 1×10^6 cells/ml, centrifuged (1200 g, 10 minutes), fixed on glass slide by cytospin (250 μl/slide, 1500 rpm, 5 minutes; Shandon Elliot, London, UK), permeablized (200 μl/slide of a solution containing 100 ml 95% methanol and 3 ml acetic acid glacial), and incubated in a blocking medium (200 μl/slide) containing 10% normal goat serum, 2% BSA, 1% glycine and 0.5% triton X-100. The cells were then stained with a rabbit anti-human NF-κB p50 polyclonal Ab (80 μl of 1:50 dilution for 30 minutes at room temperature; Santa Cruz Biotechnology, Santa Cruz, Calif.). […]
In case of the TNF-α gene, the observed importance of NF-κB for the expression of the TNFα gene may depend on the cell type and the segment of the enhancer/promoter analyzed (Siebenlist et al, 1990). […]
In the experiment the results of which are shown in FIG. 3C, normal human T-cells were either left untreated or treated with 100 nM DTX-K for 7, 15, 30 and 60 minutes (see DTX-K treatment time above each respective column). […] Representative photographs at ×100 magnification are shown for NF-κB p50 green fluorescence (upper panel), nuclei blue fluorescence (middle panel), and overlay of both (lower panel). […]

TNF-α mRNA = assay: RT-PCR for TNF-α mRNA in normal human T-cells; assay type: cell-based; conditions: 100 nM DTX-K for 24 hr; normalized to S14; FIG. 3A
Experimental: RT-PCR for TNF-α and Kv1.1: Total RNA was prepared according to Tri-Reagent protocol (MRC, Cincinnati, Ohio). First-strand cDNA was synthesized by Reverse Transcription System (Promega, Madison, Wis.). RT-PCR was conducted in a 50 μl reaction mixture containing 50 ng cDNA, 5 μl of X10 Optibuffer (Bioline, London, UK), 3 μl of 50 mM MgCl2, 2.5 μl of 10 mM dNTP mix (Promega), 4U of Bio-X-act DNA Polymerase (Bioline). For TNF-α/S14 parallel amplification, 2 μl of each TNF-α primer (10 pmol/μl) and 0.25 μl of each S14 primer (10 pmol/μl) were used. For Kv1.1/S14 parallel amplification, 5 μl of each Kv1.1 primer (100 pmol/μl) and 2.5 μl of each S14 primer (10 pmol/μl) were used. […]; Conditions for TNF-α PCR were: 94° C. for 1 minute, 63° C. for 40 seconds and 72° C. for 40 seconds (29 cycles). Conditions for Kv1.1 PCR were: 94° C. for 3 minutes (one cycle); 94° C. for 1 minute, 60/57/54/51/48° C. for 2 minutes and 72° C. for 3 minutes (three cycles each); 94° C. for 1 minute, 50° C. for 2 minutes and 72° C. for 3 minutes (25 cycles). […]
The question of whether selective block of Kv1.1 subunit containing channels in T-cells elevates not only the levels of the TNF-α protein, but also TNF-α mRNA was studied next. […] Bars at the bottom represent fold increase TNF-α mRNA calculated following densitometric analysis and normalization of the corresponding RT-PCR bands of TNF-α/S14. […]

Substance: Dendrotoxin-K (AAKYCKLPLRIGPCKRKIPSFYYKWKAKQCLPFDYSGCGGNANRFKTIEECRRTCVG) [DTX-K]
- NF-κB p50 staining of the cell nucleus (NF-κB p50): clearly positive for NF-κB p50
- TNFα mRNA levels (TNF-α mRNA): augmented
